PubChem BioAssay AID248 (DTP/NCI, 2004)
Toxic doses and inconclusive results are not listed. No stated cut-off is given here; in the data, active means T/C of 150% or more; inactive means T/C below 125%.

System: L1210 leukemia ip in BDF1 mice, survival T/C
Assay: NCI In Vivo Anticancer Drug Screen. Data for tumor model L1210 Leukemia (intraperitoneal) in B6D2F1 (BDF1) mice
Conditions: endpoint: mean survival time, higher = longer survival
Procedure, shortened: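 Tumor was transplanted into mice, which were then dosed with test compound or vehicle alone. Survival was recorded for each group, and the treated figure was expressed relative to the control figure.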

[1] = dose: 100.0 mg/kg/injection, schedule: Q01DX009 (ip), vehicle: Klucel (hydroxypropylcellulose) (HPC)
[2] = dose: 100.0 mg/kg/injection, schedule: Q04DX003 (ip), vehicle: Klucel (hydroxypropylcellulose) (HPC)
[3] = dose: 200.0 mg/kg/injection, schedule: Q01DX009 (ip), vehicle: Klucel (hydroxypropylcellulose) (HPC)
[4] = dose: 400.0 mg/kg/injection, schedule: Q01DX009 (ip), vehicle: Klucel (hydroxypropylcellulose) (HPC)
[5] = dose: 100.0 mg/kg/injection, schedule: Q04DX003 (ip), vehicle: saline with Tween-80
[6] = dose: 200.0 mg/kg/injection, schedule: Q04DX003 (ip), vehicle: saline with Tween-80
[7] = dose: 400.0 mg/kg/injection, schedule: Q04DX003 (ip), vehicle: saline with Tween-80
[8] = dose: 100.0 mg/kg/injection, schedule: Q01DX009 (ip), vehicle: saline

Measured: T/C

CC1(C)C/C(=C\c2cccc(Br)c2)C(=O)c2ccccc21
inactive: [1] 104 % of control | [2] 98 % of control | [3] 98 % of control | dose: 200.0 mg/kg/injection, schedule: Q04DX003 (ip), vehicle: Klucel (hydroxypropylcellulose) (HPC) 106 % of control | [4] 103 % of control | dose: 400.0 mg/kg/injection, schedule: Q04DX003 (ip), vehicle: Klucel (hydroxypropylcellulose) (HPC) 101 % of control

C[N+]1(C)CCC(=O)CC1
inactive: [5] 98 % of control | [6] 98 % of control | [7] 95 % of control

CCN(CC)C(=O)Nc1cccc(O)c1
inactive: [5] 94 % of control | [6] 91 % of control | [7] 93 % of control

S=c1sc2ccccc2n1CN(c1ccccc1)c1ccc2ccccc2c1
inactive: dose: 100.0 mg/kg/injection, schedule: Q01DX009 (ip), vehicle: saline with Tween-80 88 % of control | [5] 88 % of control | dose: 200.0 mg/kg/injection, schedule: Q01DX009 (ip), vehicle: saline with Tween-80 90 % of control | [6] 88 % of control | dose: 400.0 mg/kg/injection, schedule: Q01DX009 (ip), vehicle: saline with Tween-80 94 % of control | [7] 93 % of control

O=C(O)C/C(=C/c1ccc2c(c1)OCO2)C(=O)O
inactive: dose: 100.0 mg/kg/injection, schedule: Q01DX009 (sc), vehicle: olive oil, sesame oil, peanut oil 102 % of control | dose: 100.0 mg/kg/injection, schedule: Q04DX003 (sc), vehicle: olive oil, sesame oil, peanut oil 106 % of control | dose: 200.0 mg/kg/injection, schedule: Q01DX009 (sc), vehicle: olive oil, sesame oil, peanut oil 100 % of control | dose: 200.0 mg/kg/injection, schedule: Q04DX003 (sc), vehicle: olive oil, sesame oil, peanut oil 106 % of control | dose: 400.0 mg/kg/injection, schedule: Q01DX009 (sc), vehicle: olive oil, sesame oil, peanut oil 98 % of control | dose: 400.0 mg/kg/injection, schedule: Q04DX003 (sc), vehicle: olive oil, sesame oil, peanut oil 101 % of control

COP(=O)(OC)C(OC(=O)C(C)(C)SC(C)=S)=C(C)C
inactive: [5] 103 % of control | [6] 96 % of control | [7] 94 % of control

CC(=O)c1cccc(NC(=O)Oc2ccc(Cl)cc2Cc2ccccc2)c1
inactive: [1] 101 % of control | [3] 101 % of control | [4] 95 % of control

CC(C)(C)OC(=O)NOc1ccc([N+](=O)[O-])cc1[N+](=O)[O-]
inactive: dose: 2.0 mg/kg/injection, schedule: Q01DX009 (ip), vehicle: saline with Tween-80 95 % of control | dose: 4.0 mg/kg/injection, schedule: Q01DX009 (ip), vehicle: saline with Tween-80 106 % of control | dose: 8.0 mg/kg/injection, schedule: Q01DX009 (ip), vehicle: saline with Tween-80 107 % of control | dose: 16.0 mg/kg/injection, schedule: Q01DX009 (ip), vehicle: saline with Tween-80 101 % of control | dose: 25.0 mg/kg/injection, schedule: Q04DX003 (ip), vehicle: saline with Tween-80 105 % of control | dose: 50.0 mg/kg/injection, schedule: Q04DX003 (ip), vehicle: saline with Tween-80 92 % of control | dose: 75.0 mg/kg/injection, schedule: Q01DX001 (ip), vehicle: carboxymethylcellulose (CMC) 96 % of control | [5] 88 % of control

COC(C)C(OC)OC (configuration not stated)
inactive: [8] 98 % of control | dose: 100.0 mg/kg/injection, schedule: Q04DX003 (ip), vehicle: saline 101 % of control | dose: 200.0 mg/kg/injection, schedule: Q01DX009 (ip), vehicle: saline 96 % of control | dose: 200.0 mg/kg/injection, schedule: Q04DX003 (ip), vehicle: saline 103 % of control | dose: 400.0 mg/kg/injection, schedule: Q01DX009 (ip), vehicle: saline 96 % of control | dose: 400.0 mg/kg/injection, schedule: Q04DX003 (ip), vehicle: saline 92 % of control

C=CCC1(CCC)C(=O)NC(=O)NC1=O
inactive: dose: 25.0 mg/kg/injection, schedule: Q01DX009 (ip), vehicle: saline 100 % of control | dose: 50.0 mg/kg/injection, schedule: Q01DX009 (ip), vehicle: saline 112 % of control | [8] 100 % of control | [2] 92 % of control

CS(=O)(=O)c1ncc2cnccn12
inactive: dose: 100.0 mg/kg/injection, schedule: Q01DX009 (ip), vehicle: water 101 % of control | dose: 100.0 mg/kg/injection, schedule: Q04DX003 (ip), vehicle: water 109 % of control | dose: 200.0 mg/kg/injection, schedule: Q01DX009 (ip), vehicle: water 109 % of control | dose: 400.0 mg/kg/injection, schedule: Q04DX003 (ip), vehicle: water 110 % of control
